Test results from PubChem BioAssay (NCI).
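1) Cells in 96-well plates. 2) Compound, 48 h, 5 concentrations. 3) Linear interpolation between surrounding doses. 4) Unreached endpoint = highest concentration. Definition used: TGI = concentration required for complete inhibition of growth.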

How the values were obtained:
Test in all cases: NCI-60 cell line screen, 48 h
HOP-92 NSCLC = system: HOP-92 NSCLC
HCT-116 colon = system: HCT-116 colon
UACC-62 melanoma = system: UACC-62 melanoma
RPMI-8226 leukemia = system: RPMI-8226 leukemia
U251 CNS = system: U251 CNS
OVCAR-4 ovarian = system: OVCAR-4 ovarian
OVCAR-5 ovarian = system: OVCAR-5 ovarian
NCI-H522 lung = system: NCI-H522 lung
LOX IMVI melanoma = system: LOX IMVI melanoma
CAKI-1 renal = system: CAKI-1 renal

Row | SMILES | TGI (HOP-92 NSCLC) | TGI (HCT-116 colon) | TGI (UACC-62 melanoma) | TGI (RPMI-8226 leukemia) | TGI (U251 CNS) | TGI (OVCAR-4 ovarian) | TGI (OVCAR-5 ovarian) | TGI (NCI-H522 lung) | TGI (LOX IMVI melanoma) | TGI (CAKI-1 renal)
1 | O=C(NNC1=NCCN1)c1ccco1 | > 100 µM | > 100 µM | > 100 µM | > 100 µM | > 100 µM | > 100 µM | > 100 µM | > 100 µM | > 100 µM | 
2 | COC(=O)c1ccc2c(O)c(O)ccc2c1 | 33.6 µM | 32 µM | 29.4 µM | 61.2 µM | 27.5 µM | 28.3 µM | 36.5 µM | 29.1 µM | 11.5 µM | 47.3 µM
3 | COC(=O)C1CCC(=O)N1CN(C(C)=O)c1ccccc1 (stereo unspecified) | > 100 µM | > 100 µM | > 100 µM | > 100 µM | > 100 µM | > 100 µM | > 100 µM | > 100 µM | > 100 µM | > 100 µM
4 | O=[N+]([O-])/C=C1\COCc2cc3c(cc21)OCO3 | > 100 µM | 39.6 µM | 51.8 µM | 68.5 µM | 36.5 µM |  | 43.4 µM | 40.2 µM | 71.5 µM | 25.7 µM
5 | O=C(c1ccccc1)c1ccc(COc2ccc(C(c3c(O)c4ccccc4oc3=O)c3c(O)c4ccccc4oc3=O)cc2)cc1 |  | > 100 µM | 30 µM | 38.4 µM | > 100 µM | 73 µM | 38.9 µM | 38.1 µM | 56.5 µM | 45 µM
6 | CCC1(CC)CC(=NNS(=O)(=O)c2ccc(C)cc2)C1 | > 100 µM | > 100 µM | > 100 µM |  | > 100 µM | > 100 µM | > 100 µM | > 100 µM | > 100 µM | > 100 µM
7 | CC1C(c2ccccc2)OP(=O)(OC(C#N)c2ccccc2)N1C (stereo unspecified) | > 100 µM | > 100 µM | > 100 µM | > 100 µM | > 100 µM |  | > 100 µM | > 100 µM | > 100 µM | > 100 µM
8 | CC1(C)CS(=O)(=O)CC(C)(C)C(=N/N)/C1=N\N | > 100 µM | > 100 µM | > 100 µM |  | > 100 µM | > 100 µM | > 100 µM | > 100 µM | > 100 µM | > 100 µM
9 | CSc1nc(N)c(NC2OC(CO)C(O)C2O)c(=O)[nH]1 (stereo unspecified) |  | > 100 µM | > 100 µM | > 100 µM | > 100 µM | > 100 µM | > 100 µM | > 100 µM | > 100 µM | > 100 µM
10 | COc1ccc(NC2Oc3cc4c(cc3C(c3cccc(OC)c3OC)C2C)OCO4)cc1 (stereo unspecified) | 25.1 µM | 16.3 µM | > 100 µM | > 100 µM | > 100 µM |  | > 100 µM | > 100 µM | > 100 µM | > 100 µM
11 | O=c1cc(-c2cccc(Cl)c2)[nH]c2ncccc12 | > 100 µM | 1.17 µM | > 100 µM |  | 29.3 µM | > 100 µM | > 100 µM | 0.914 µM | > 100 µM | 40.4 µM
